Test system: subjects with mIDH1 advanced AML
Assay: Phase I study: safety and tolerability (TEAE, DLT, MTD, ECG)
Format: in vivo
Method: This study was an open-label, nonrandomized, multicenter phase I trial. Subjects were screened at 13 hospital sites in 2 countries (USA and Germany). The study was to consist of dose-escalation followed by dose-expansion. The MTD identified in dose-escalation was to be used in the dose-expansion. If MTD was not reached in dose-escalation, a dose for the expansion would be selected based on available PK, pharmacodynamic, safety, and efficacy data. BAY1436032 was administered twice-daily (BID) in continuous 28-day cycles. In dose-escalation, up to 9 evaluable subjects could be enrolled per cohort, with a minimum of 3 dose-limiting toxicity (DLT)-free evaluable subjects required prior to escalating to the next highest dose. Bayesian dose-DLT modeling was performed to help guide dosing decisions.
DLTs were differentially defined for nonhematopoietic versus hematopoietic toxicities. Nonhematopoietic toxicities of ≥grade 3 occurring during the first cycle of treatment were to be considered DLTs with the following exceptions: (1) Alopecia and nausea controlled by medical management; (2) Tumor lysis syndrome if successfully managed clinically and resolved within 7 days without any end-organ damage; (3) Differentiation syndrome (DS) if successfully managed clinically and resolved within 7 days without any end-organ damage; (4) Asymptomatic ≥grade 3 electrolyte abnormalities not considered clinically significant by the investigator. […] For certain toxicities such as laboratory assessments without a clear clinical correlate, a discussion between the investigator and the sponsor determined whether the adverse event (AE) should be assessed as a DLT.
DLTs identified during the first cycle of treatment were used to guide dose-escalation decisions and to determine the MTD, and if safety issues appeared in subsequent cycles they were also to be considered. Hydroxyurea was permitted during the first cycle if white blood cell (WBC) exceeded 20 × 10^9/L and was also permitted for treatment of DS.
Safety and tolerability were evaluated by analysis of adverse events, physical examinations, vital signs, ECOG performance status, and various laboratory assessments. For safety monitoring, subjects were scheduled for clinic visits every week for the initial three cycles of treatment, after which time visits could be reduced to every-other-week with investigator and sponsor agreement. Cardiac function was assessed with triplicate 12-lead electrocardiograms (ECG) at screening, C1-D1, C1-D2, C1-D15, D1 of every subsequent cycle, and at treatment end. […] AEs are presented by the Medical Dictionary for Regulatory Activities (MedDRA) v21.1.

## C[C@H]1C[C@@H](n2c(Nc3ccc(OC(F)(F)F)cc3)nc3cc(CCC(=O)O)ccc32)CC(C)(C)C1 [BAY1436032]
600 mg BID, n=4
  TEAE Decreased appetite Grade 1: 0
  TEAE Decreased appetite Grade 2: 0
  TEAE Decreased appetite Grade 3: 0
  TEAE Diarrhea Grade 1: 0
  TEAE Diarrhea Grade 2: 0
  TEAE Dry skin Grade 1: 1
  TEAE Dyspnoea Grade 1: 0
  TEAE Dyspnoea Grade 2: 0
  TEAE Dyspnoea Grade 3: 0
  TEAE Epistaxis Grade 1: 1
  TEAE Epistaxis Grade 2: 0
  TEAE Epistaxis Grade 3: 1
  TEAE Fall Grade 1: 1
  TEAE Fatigue Grade 1: 1
  TEAE Fatigue Grade 2: 0
  TEAE Fatigue Grade 3: 0
  TEAE Febrile neutropenia Grade 3: 1
  TEAE General physical health deterioration Grade 3: 0
  TEAE General physical health deterioration Grade 5: 0
  TEAE Gingivitis Grade 1: 1
  TEAE Haematuria Grade 1: 0
  TEAE Haematuria Grade 2: 1
  TEAE Haematuria Grade 3: 0
  TEAE Headache Grade 1: 0
  TEAE Headache Grade 2: 0
  TEAE Headache Grade 3: 0
  TEAE Hyperkalaemia Grade 1: 1
  TEAE Hyperkalaemia Grade 4: 1
  TEAE Hypertension Grade 2: 0
  TEAE Hypertension Grade 3: 0
  TEAE Hyperuricaemia Grade 1: 1
  TEAE Hyperuricaemia Grade 3: 1
  TEAE Hypokalaemia Grade 1: 0
  TEAE Hypokalaemia Grade 2: 0
  TEAE Hypokalaemia Grade 3: 0
  TEAE Hyponatraemia Grade 1: 0
  TEAE Hyponatraemia Grade 3: 0
  TEAE Hypophosphataemia Grade 1: 0
  TEAE Hypophosphataemia Grade 2: 0
  TEAE Leukocytosis Grade 2: 0
  TEAE Leukocytosis Grade 3: 0
  TEAE Lung infection Grade 3: 1
  TEAE Lung infection Grade 5: 0
  TEAE Nausea Grade 1: 1
  TEAE Nausea Grade 2: 0
  TEAE Nausea Grade 3: 0
  TEAE Oedema peripheral Grade 1: 1
  TEAE Oedema peripheral Grade 3: 0
  TEAE Pain in extremity Grade 1: 0
  TEAE Pain in extremity Grade 2: 0
  TEAE Pneumonia Grade 1: 0
  TEAE Pneumonia Grade 2: 0
  TEAE Pneumonia Grade 3: 0
  TEAE Pneumonia fungal Grade 2: 0
  TEAE Pneumonia fungal Grade 3: 0
  TEAE Pneumonia fungal Grade 4: 0
  TEAE Productive cough Grade 1: 1
  TEAE Productive cough Grade 2: 0
  TEAE Pyrexia Grade 1: 1
  TEAE Pyrexia Grade 2: 1
  TEAE Pyrexia Grade 3: 0
  TEAE Rash Grade 1: 0
  TEAE Rash Grade 2: 1
  TEAE Sepsis Grade 4: 1
  TEAE Sepsis Grade 5: 0
  TEAE Sinus tachycardia Grade 1: 0
  TEAE Thrombocytopenia Grade 4: 0
  TEAE Vomiting Grade 1: 1
  TEAE Weight decreased Grade 1: 0
  TEAE Weight decreased Grade 2: 1
  TEAE Weight decreased Grade 3: 0
1200 mg BID, n=7
  Related TEAE Decreased appetite Grade 1: 0
  Related TEAE Decreased appetite Grade 2: 0
  Related TEAE Diarrhea Grade 2: 2
  Related TEAE Differentiation syndrome Grade 2: 0
  Related TEAE Differentiation syndrome Grade 3: 1
  Related TEAE Dyspnea Grade 1: 1
  Related TEAE Dyspnea Grade 2: 0
  Related TEAE Fatigue Grade 1: 0
  Related TEAE Fatigue Grade 2: 1
  Related TEAE Fatigue Grade 3: 0
  Related TEAE Hypomagnesaemia Grade 1: 0
  Related TEAE Nausea Grade 1: 1
  Related TEAE Nausea Grade 2: 0
  Related TEAE Sinus tachycardia Grade 1: 0
  Related TEAE Vomiting Grade 1: 0
  TEAE Abdominal pain upper Grade 1: 0
  TEAE Abdominal pain upper Grade 2: 0
  TEAE Acute kidney injury Grade 1: 0
  TEAE Acute kidney injury Grade 2: 0
  TEAE Acute kidney injury Grade 3: 0
  TEAE Anaemia Grade 3: 3
  TEAE Anaemia Grade 4: 0
  TEAE Anxiety Grade 1: 1
  TEAE Anxiety Grade 2: 0
  TEAE Arthralgia Grade 1: 0
  TEAE Arthralgia Grade 2: 1
  TEAE Constipation Grade 1: 1
  TEAE Constipation Grade 2: 0
  TEAE Contusion Grade 1: 1
  TEAE Contusion Grade 2: 0
  TEAE Cough Grade 1: 0
  TEAE Cough Grade 2: 0
  TEAE Decreased appetite Grade 1: 0
  TEAE Decreased appetite Grade 2: 1
  TEAE Decreased appetite Grade 3: 0
  TEAE Diarrhea Grade 1: 1
  TEAE Diarrhea Grade 2: 2
  TEAE Dry skin Grade 1: 1
  TEAE Dyspnoea Grade 1: 1
  TEAE Dyspnoea Grade 2: 1
  TEAE Dyspnoea Grade 3: 0
  TEAE Epistaxis Grade 1: 0
  TEAE Epistaxis Grade 2: 2
  TEAE Epistaxis Grade 3: 0
  TEAE Fall Grade 1: 1
  TEAE Fatigue Grade 1: 0
  TEAE Fatigue Grade 2: 2
  TEAE Fatigue Grade 3: 0
  TEAE Febrile neutropenia Grade 3: 2
  TEAE General physical health deterioration Grade 3: 0
  TEAE General physical health deterioration Grade 5: 0
  TEAE Gingivitis Grade 1: 0
  TEAE Haematuria Grade 1: 1
  TEAE Haematuria Grade 2: 0
  TEAE Haematuria Grade 3: 0
  TEAE Headache Grade 1: 0
  TEAE Headache Grade 2: 0
  TEAE Headache Grade 3: 0
  TEAE Hyperkalaemia Grade 1: 0
  TEAE Hyperkalaemia Grade 4: 0
  TEAE Hypertension Grade 2: 0
  TEAE Hypertension Grade 3: 1
  TEAE Hyperuricaemia Grade 1: 2
  TEAE Hyperuricaemia Grade 3: 0

— publication PMC7584476, “Safety and efficacy of BAY1436032 in IDH1-mutant AML: phase I study results” (Leukemia, 2020)
